Key:
[1] = system: Mesenchymal-mapped xenograft models; experiment: Survival of drug-treated GBM mouse xenografts vs control, Mesenchymal-mapped; conditions: for frequency of xenograft models with survival difference NS (statistically Not Significant) / frequency of xenograft models with significantly longer survival than control (treatment-sensitive) / frequency of xenograft models with significantly shorter survival than control (treatment-resistant): Mesenchymal subtype, total 4 xenografts; for frequency of xenograft models with survival difference NS (statistically Not Significant): Cox regression; for frequency of xenograft models with significantly longer survival than control (treatment-sensitive) / frequency of xenograft models with significantly shorter survival than control (treatment-resistant): Cox regression p-value threshold 0.05; for subtype-specific drug response (sensitivity or resistance): Mesenchymal-mapped xenograft models, survival analysis
Procedure: (§1) Forty GBM mouse xenografts were used. […] These xenografts were also mapped to the four molecular subtypes: proneural, neural, classical, and mesenchymal.
(§2) Characterizing drug responsiveness for GBM subtypes using the mapped xenografts: Out of 40 xenograft models, 21 models were treated with 4 different treatments and their survival rates were compared against control groups.

[2] = system: Neural-mapped xenograft models; experiment: Survival of drug-treated GBM mouse xenografts vs control, Neural-mapped; type: in vivo; conditions: Neural subtype, total 3 xenografts; for frequency of xenograft models with survival difference NS (statistically Not Significant): Cox regression; for frequency of xenograft models with significantly longer survival than control (treatment-sensitive) / frequency of xenograft models with significantly shorter survival than control (treatment-resistant): Cox regression p-value threshold 0.05
Procedure: as §1, §2

[3] = system: Classical-mapped xenograft models; experiment: Survival of drug-treated GBM mouse xenografts vs control, Classical-mapped; conditions: for frequency of xenograft models with survival difference NS (statistically Not Significant) / frequency of xenograft models with significantly longer survival than control (treatment-sensitive) / frequency of xenograft models with significantly shorter survival than control (treatment-resistant): Classical subtype, total 2 xenografts; for frequency of xenograft models with survival difference NS (statistically Not Significant): Cox regression; for frequency of xenograft models with significantly longer survival than control (treatment-sensitive) / frequency of xenograft models with significantly shorter survival than control (treatment-resistant): Cox regression p-value threshold 0.05
Procedure: as §1, §2

[4] = system: Proneural-mapped xenografts; experiment: Survival of drug-treated GBM mouse xenografts vs control, Proneural-mapped; type: in vivo; conditions: Proneural subtype, total 2 xenografts; for frequency of xenograft models with survival difference NS (statistically Not Significant): Cox regression; for frequency of xenograft models with significantly longer survival than control (treatment-sensitive) / frequency of xenograft models with significantly shorter survival than control (treatment-resistant): Cox regression p-value threshold 0.05
Procedure: as §1, §2

Cn1c(=O)n(-c2ccc(C(C)(C)C#N)cc2)c2c3cc(-c4cnc5ccccc5c4)ccc3ncc21 [BEZ235]
frequency of xenograft models with survival difference NS (statistically Not Significant) [1]: 3
frequency of xenograft models with significantly longer survival than control (treatment-sensitive) [1]: 0
frequency of xenograft models with significantly shorter survival than control (treatment-resistant) [1]: 1
subtype-specific drug response (sensitivity or resistance) [1]: resistance
frequency of xenograft models with survival difference NS (statistically Not Significant) [2]: 3
frequency of xenograft models with significantly longer survival than control (treatment-sensitive) [2]: 0
frequency of xenograft models with significantly shorter survival than control (treatment-resistant) [2]: 0
frequency of xenograft models with survival difference NS (statistically Not Significant) [3]: 2
frequency of xenograft models with significantly longer survival than control (treatment-sensitive) [3]: 0
frequency of xenograft models with significantly shorter survival than control (treatment-resistant) [3]: 0
frequency of xenograft models with survival difference NS (statistically Not Significant) [4]: 1
frequency of xenograft models with significantly longer survival than control (treatment-sensitive) [4]: 1
frequency of xenograft models with significantly shorter survival than control (treatment-resistant) [4]: 0

CNC(=O)c1cc(Oc2ccc(NC(=O)Nc3ccc(Cl)c(C(F)(F)F)c3)cc2)ccn1 [Sorafenib, sorafenib]
frequency of xenograft models with survival difference NS (statistically Not Significant) [1]: 1
frequency of xenograft models with significantly longer survival than control (treatment-sensitive) [1]: 1
frequency of xenograft models with significantly shorter survival than control (treatment-resistant) [1]: 2
subtype-specific drug response (sensitivity or resistance) [1]: resistance
frequency of xenograft models with survival difference NS (statistically Not Significant) [2]: 3
frequency of xenograft models with significantly longer survival than control (treatment-sensitive) [2]: 0
frequency of xenograft models with significantly shorter survival than control (treatment-resistant) [2]: 0
frequency of xenograft models with survival difference NS (statistically Not Significant) [3]: 1
frequency of xenograft models with significantly longer survival than control (treatment-sensitive) [3]: 0
frequency of xenograft models with significantly shorter survival than control (treatment-resistant) [3]: 1
subtype-specific drug response (sensitivity or resistance) ([3]; Classical-mapped xenograft models, survival analysis): resistance
frequency of xenograft models with survival difference NS (statistically Not Significant) [4]: 1
frequency of xenograft models with significantly longer survival than control (treatment-sensitive) [4]: 1
frequency of xenograft models with significantly shorter survival than control (treatment-resistant) [4]: 0

Cn1nnc2c(C(N)=O)ncn2c1=O [TMZ, temozolomide]
frequency of xenograft models with survival difference NS (statistically Not Significant) [1]: 2
frequency of xenograft models with significantly longer survival than control (treatment-sensitive) [1]: 2
frequency of xenograft models with significantly shorter survival than control (treatment-resistant) [1]: 0
frequency of xenograft models with survival difference NS (statistically Not Significant) [2]: 2
frequency of xenograft models with significantly longer survival than control (treatment-sensitive) [2]: 1
frequency of xenograft models with significantly shorter survival than control (treatment-resistant) [2]: 0
frequency of xenograft models with survival difference NS (statistically Not Significant) [3]: 1
frequency of xenograft models with significantly longer survival than control (treatment-sensitive) [3]: 1
frequency of xenograft models with significantly shorter survival than control (treatment-resistant) [3]: 0
frequency of xenograft models with survival difference NS (statistically Not Significant) [4]: 1
frequency of xenograft models with significantly longer survival than control (treatment-sensitive) [4]: 1
frequency of xenograft models with significantly shorter survival than control (treatment-resistant) [4]: 0

Reference: US20130237444A1, “GBM MOLECULAR CONTEXTS ASSOCIATED WITH PATIENT SURVIVAL” (Translational Genomics Research Institute, priority 2012, published 2013)
